Assay results taken from publication PMC7112239, “Latency reversal agents modulate HIV antigen processing and presentation to CD8 T cells” (PLoS Pathogens, 2020).
Where no end group is shown, it is not given here.

Columns and labels:
[1] = tested on: HIV-infected HLA-B57+ CD4 T cells; assay: Endogenous processing and presentation assay: CD107a degranulation of epitope-specific CD8 T cells and peptide equivalent; type: cell-based, human; conditions: for score of peptide presentation efficiency (peptide equivalent over HIV infection rate) at 24 hours / equivalent peptide presented (TW10, ISW9, KF11) at 24 hpi: 24 hpi; for score of peptide presentation efficiency (peptide equivalent over HIV infection rate) at 24 hours: all 3 epitopes; for equivalent peptide presented (TW10, ISW9, KF11) at 24 hpi: radar plots
[2] = tested on: CD4 T cell extracts (antigen processing machinery); assay: In vitro degradation of HIV-1 Gag p24-161-24m in extracts of LRA-treated CD4 T cells, mass spectrometry; type: biochemical, human
Method: (§1) Romidepsin, Bryostatin, Disulfiram (Sigma), Ingenol-3-angelate (Santa Cruz Biotechnologies), Panobinostat (Selleckchem) were dissolved in DMSO (Fisher Scientific) to make stock solutions. Fresh aliquots were used for each experiment. The final concentrations for each LRA in cell culture were as follows: Panobinostat (30 nM), Romidepsin (40 nM), Disulfiram (500 nM), Bryostatin (10 nM), Ingenol-3-angelate (50 nM). Maximum in vitro stimulation was achieved by addition of anti-CD3/CD28 magnetic beads (Fisher Scientific) at a ratio of 1:1 bead to T cell as in [37]. For combination treatment, both drugs were added at the same time.
(§2) 2 nmol of pure peptide (MGH peptide core facility or Biosynthesis, Texas) was degraded with 15 ug of CD4 T cell extracts at 37°C in pH7.4 degradation buffer as in [37, 40]. Aliquots were taken at various time points and the reaction was stopped by addition of 5% (v/v) of Formic acid (Thermo Scientific) and the degradation products were purified by trichloroacetic acid (Sigma) precipitation (final concentration 5% (v/v)) and identified by in-house mass spectrometry as previously described. Briefly, equal amounts of the purified degradation products were injected into a NanoLC Ultra-HPLC (Eksigent) for salt removal and separation, then online nanosprayed into an LTQ Orbitrap Discovery mass spectrometer (Thermo) for identification. Peptides were separated in a NanoLC column (ChromXP C18, 3 um 120Å; Eksigent) over a gradient of 2–60% buffer B (buffer A: 0.1% (v/v) formic acid in MS-grade water (Fisher Scientific)); buffer B: 0.1% (v/v) formic acid in MS-grade acetonitrile (Fisher Scientific) in 95 min with a conserved flow rate of 250 nl/min. Mass spectra were recorded in the 370–2000 Daltons range. In the tandem mass spectrometry mode, the eight most intense peaks were selected with a window of 1 Dalton and fragmented using helium as collision gas and a voltage of 35 V. Peaks in the mass spectra were searched against the source peptide databases with Proteome Discoverer (version 1.3; Thermo) and quantitatively analyzed. For a given peptide, the integrated area under the peak is proportional to the relative abundance of the peptide in the sample. Each sample was run on the mass spectrometer at least twice.

proteasome = conditions: cited from earlier work
Text: Most LRAs selected so far to relieve transcriptional blocks act on signaling pathways and histone acetylation but are not specific to HIV LTR promoters or targeted to the reservoirs, thus their effect should be considered globally on genes and cellular machineries of cell populations.

[3] = tested on: post-proteasomal aminopeptidases; assay: Aminopeptidase hydrolytic activity in live CD4 T cells (fluorogenic H-Leu-AMC); type: cell-based, human; conditions: live primary CD4 T cells of healthy donors, 48 h treatment, versus DMSO; Bryostatin 10 nM, Panobinostat 30 nM; 50 μM H-Leu-AMC, 37°C; n = 8
Method: as §1
The proteasome hydrolytic activities caspase-like (50 μM Z-LLE-AMC; EMD Millipore), tryptic (50 μM Boc-LRR-AMC; Bachem), chymotryptic (50 μM Suc-LLVY-AMC; Bachem), post-proteasomal aminopeptidases (50 μM H-Leu-AMC; Bachem) were measured in 25x10^3 live CD4 T cells at given time points after drug treatment with peptidase-specific fluorogenic substrates as in [37, 40]. […] The rate of fluorescence emission, which is proportional to the proteolytic activity, was measured every 600 s at 37°C in a Victor-3 Plate Reader (Perkin Elmer), as in [37].

[4] = tested on: CD4 T cell extracts (antigen processing machinery); assay: In vitro degradation of HIV-1 Gag p24-10-35m in extracts of LRA-treated CD4 T cells, mass spectrometry; type: biochemical, human; conditions: for HLA-B57 KF11 epitope production: LRA-treated extracts over matched DMSO, n = 6–10 donors
Method: as §1, §2

primary CD4 T cells = assay: CD25 and CD69 surface activation markers by flow cytometry; type: cell-based, human; conditions: 6, 24 and 48 h post treatment
Method: as §1
Untreated or LRA-treated CD4 T cells were stained with CD4-BV605, CD3-Pacific Blue (BD Biosciences) and HLA-ABC-AlexaFluor700 (Biolegend) to assess purity (95–99%) and CD38-FITC, CD69-PE, CD25-PerCpCy5.5 and HLA-DR-APC (BD Biosciences) to measure surface activation marker levels. Cellular activation levels were calculated by first gating on the double negative population of CD25 and CD69 of the non-treated sample on live, CD4- and CD3-positive cells and applying the same gates to the LRA-treated and CD3/CD28-stimulated samples as done in [37]. A similar gating strategy was applied to determine the proportion of CD38- and HLA-DR-positive CD4 T cells.

[5] = cited from earlier work
Text: We similarly assessed the processing of another HIV fragment, p24-161-24mer, after LRAs or aCD3/CD28 treatments (Fig 3A).

[6] = over matched DMSO, n = 8–11 healthy donors
[7] = extracts of CD4 T cells treated 48 h, 120-minute degradation, representative experiment

## CCC/C=C/C=C/C(=O)O[C@H]1/C(=C/C(=O)OC)C[C@H]2C[C@H]([C@@H](C)O)OC(=O)C[C@H](O)C[C@@H]3C[C@H](OC(C)=O)C(C)(C)[C@](O)(C[C@@H]4C/C(=C/C(=O)OC)C[C@H](/C=C/C(C)(C)[C@]1(O)O2)O4)O3 [Bryostatin]
[1]
  score of peptide presentation efficiency (peptide equivalent over HIV infection rate) at 24 hours: lowest
  equivalent peptide presented (TW10, ISW9, KF11) at 24 hpi: among the lowest
[1]; 24 to 72 hpi
  efficiency of peptide presentation overtime: increased
[2]; first half of the sequence, representative experiment
  increase of production of 8-11aa peptides in p24-161-24m: 2- to 5 fold
[2]; n = 4–10 donors
  ratio of 8-11aa peptides of p24-161-24m produced in treated over DMSO treated cells: significantly increased
[2]; [6]
  number of significantly changed N- or C-terminal cleavage sites, p24-161-24mer: 6
proteasome
  proteasome activities in fibroblasts: can enhance proteasome activities
[3]
  aminopeptidase hydrolytic activities, average fold change: 1.6 fold
[4]; [7]
  amount of fragments starting at V2, V15, V17 of p24-10-35m: reduced
[4]; second half of the sequence, representative experiment
  difference in amount of 8-11aa peptides of p24-10-35m versus DMSO- or Panobinostat-treated extracts: up to 5 times

## CCN(CC)C(=S)SSC(=S)N(CC)CC [Disulfiram]
proteasome; effect on NF-κB
  proteasome activities in cell lines: inhibited proteasome activities
Primary CD4 T cells
  proportion of CD25+ and/or CD69+ primary CD4 T cells compared to DMSO-treated cells: Neither HDACi nor disulfiram changed the proportion
[4]
  HLA-B57 KF11 epitope production: decreased
[4]; treated extracts over matched DMSO, n = 2–6 donors
  QW11 epitope production: increased

## CC[C@H](C)[C@H](NC(=O)[C@@H](NC(=O)[C@H](CCC(=O)O)NC(=O)[C@@H]1CCCN1C(=O)[C@H](CO)NC(=O)[C@H](Cc1ccccc1)NC(=O)[C@H](C)NC(=O)[C@@H](N)CCCCN)C(C)C)C(=O)N1CCC[C@H]1C(=O)N[C@@H](CCSC)C(=O)N[C@@H](Cc1ccccc1)C(=O)O [KF11]
[5]
  degradability in the cytosol of primary cells: less degradable

## Cc1[nH]c2ccccc2c1CCNCc1ccc(/C=C/C(=O)NO)cc1 [Panobinostat]
[1]
  KF11 and ISW9 peptide equivalent displayed by HIV-infected CD4 T cells: reduction of peptide presentation
  score of peptide presentation efficiency (peptide equivalent over HIV infection rate) at 24 hours: second highest
  equivalent peptide presented (TW10, ISW9, KF11) at 24 hpi: highest KF11 and ISW9 peptide presentations
[2]; [6]
  peptide production at each aa of p24-161-24mer: decreased peptide production at most aa
[2]; representative experiment
  production of 8-11aa peptides throughout the p24-161-24m sequence: reduced
[3]
  aminopeptidase hydrolytic activities, average fold change: 0.78 fold
[4]
  HLA-B57 KF11 epitope production: unchanged
[4]; [7]
  amount of fragments starting at V2, V15, V17 of p24-10-35m: increased
[4]; extracts of CD4 T cells treated 48 h, 120-minute degradation, representative experiment, versus DMSO
  reduction of fragments starting at H3 or N12 of p24-10-35m: 10 fold
[4]; treated extracts over matched DMSO, n = 4–9 donors
  HLA-B57 ISW9 epitope production: increased

## ISPRTLNAW [ISW9]
[5]
  degradability in the cytosol of primary cells: among the most degradable
